Source: PMC10175918 (Communications Biology, 2023)
Where two headings read alike, the source gives them in different places.

How the values were obtained:
Experiment in all cases: TGFα-shedding assay-based GPCR screening with chimeric Gα subunit proteins
Assay type in all cases: cell-based
348 GPCRs [1] = target: T1, 348 GPCRs (Homo sapiens, UniProt P18825)
T1 construct: expressed in transfected cells; host or cells: HEK293A
T1 sequence (P18825 1-462): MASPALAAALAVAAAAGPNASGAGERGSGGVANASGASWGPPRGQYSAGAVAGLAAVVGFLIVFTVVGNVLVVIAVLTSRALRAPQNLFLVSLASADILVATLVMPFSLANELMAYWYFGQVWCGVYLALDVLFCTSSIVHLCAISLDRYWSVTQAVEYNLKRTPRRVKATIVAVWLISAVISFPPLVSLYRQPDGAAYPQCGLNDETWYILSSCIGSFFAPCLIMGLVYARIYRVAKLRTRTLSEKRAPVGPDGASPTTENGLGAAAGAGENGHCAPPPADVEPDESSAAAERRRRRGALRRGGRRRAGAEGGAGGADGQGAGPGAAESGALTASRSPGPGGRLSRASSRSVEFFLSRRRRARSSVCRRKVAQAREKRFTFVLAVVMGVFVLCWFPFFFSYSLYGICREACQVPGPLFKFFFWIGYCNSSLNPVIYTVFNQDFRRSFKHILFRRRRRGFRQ

348 GPCRs [2] = target: T2, 348 GPCRs (Homo sapiens, UniProt P32239); details: 10µM, Favipiravir 100μM
T2 sequence (P32239 1-447): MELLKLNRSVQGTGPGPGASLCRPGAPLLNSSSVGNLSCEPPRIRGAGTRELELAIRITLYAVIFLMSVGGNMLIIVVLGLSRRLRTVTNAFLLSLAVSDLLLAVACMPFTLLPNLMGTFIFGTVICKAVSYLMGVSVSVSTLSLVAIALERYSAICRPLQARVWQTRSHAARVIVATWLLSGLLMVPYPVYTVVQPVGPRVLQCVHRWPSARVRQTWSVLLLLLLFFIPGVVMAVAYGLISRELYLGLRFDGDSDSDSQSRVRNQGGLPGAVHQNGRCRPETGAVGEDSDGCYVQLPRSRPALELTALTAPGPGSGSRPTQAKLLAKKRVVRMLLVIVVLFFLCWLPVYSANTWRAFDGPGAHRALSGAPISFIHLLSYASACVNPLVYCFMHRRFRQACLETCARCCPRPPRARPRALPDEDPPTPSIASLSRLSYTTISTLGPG

348 GPCRs [3] = target: T3, 348 GPCRs (Homo sapiens, UniProt P35367); details: 10µM, Favipiravir 100μM
T3 construct: expressed in transfected cells; host or cells: HEK293A

348 GPCRs [4] = target: 348 GPCRs (Homo sapiens, UniProt P43220); details: 10µM, Favipiravir 100μM
348 GPCRs [5] = target: T4, 348 GPCRs (Homo sapiens, UniProt Q8IZF5)
T4 construct: expressed in transfected cells; host or cells: HEK293A
T4 sequence (Q8IZF5 26-1079): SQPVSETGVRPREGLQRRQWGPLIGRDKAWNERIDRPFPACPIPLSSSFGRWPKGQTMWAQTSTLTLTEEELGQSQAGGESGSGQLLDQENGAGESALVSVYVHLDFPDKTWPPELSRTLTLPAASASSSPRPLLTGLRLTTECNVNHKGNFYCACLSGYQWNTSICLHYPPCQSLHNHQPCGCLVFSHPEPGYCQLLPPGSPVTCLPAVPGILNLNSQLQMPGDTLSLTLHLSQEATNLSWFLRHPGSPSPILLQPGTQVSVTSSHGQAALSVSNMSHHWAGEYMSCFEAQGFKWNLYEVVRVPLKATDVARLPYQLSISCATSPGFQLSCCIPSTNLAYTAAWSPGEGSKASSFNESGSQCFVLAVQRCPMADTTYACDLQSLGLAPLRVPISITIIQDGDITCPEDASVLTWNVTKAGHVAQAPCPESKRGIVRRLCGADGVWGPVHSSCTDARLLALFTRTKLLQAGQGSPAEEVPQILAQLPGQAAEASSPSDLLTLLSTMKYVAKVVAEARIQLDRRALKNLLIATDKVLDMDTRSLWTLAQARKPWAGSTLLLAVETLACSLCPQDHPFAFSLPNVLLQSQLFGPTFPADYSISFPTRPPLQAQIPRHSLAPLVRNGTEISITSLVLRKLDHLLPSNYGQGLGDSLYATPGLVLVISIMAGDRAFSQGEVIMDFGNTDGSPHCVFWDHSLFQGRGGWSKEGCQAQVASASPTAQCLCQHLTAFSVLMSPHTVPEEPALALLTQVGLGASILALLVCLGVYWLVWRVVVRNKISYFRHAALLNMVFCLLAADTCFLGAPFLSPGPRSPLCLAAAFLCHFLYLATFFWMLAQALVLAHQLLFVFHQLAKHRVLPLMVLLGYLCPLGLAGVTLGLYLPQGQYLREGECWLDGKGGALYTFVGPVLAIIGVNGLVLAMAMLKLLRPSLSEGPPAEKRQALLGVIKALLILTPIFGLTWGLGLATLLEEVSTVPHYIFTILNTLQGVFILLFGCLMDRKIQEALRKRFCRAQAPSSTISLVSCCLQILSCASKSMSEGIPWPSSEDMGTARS

348 GPCRs [6] = target: T5, 348 GPCRs (Homo sapiens, UniProt Q8TDU6); details: 10µM, Favipiravir 100μM
T5 construct: expressed in transfected cells; host or cells: HEK293A
T5 sequence (Q8TDU6 1-330): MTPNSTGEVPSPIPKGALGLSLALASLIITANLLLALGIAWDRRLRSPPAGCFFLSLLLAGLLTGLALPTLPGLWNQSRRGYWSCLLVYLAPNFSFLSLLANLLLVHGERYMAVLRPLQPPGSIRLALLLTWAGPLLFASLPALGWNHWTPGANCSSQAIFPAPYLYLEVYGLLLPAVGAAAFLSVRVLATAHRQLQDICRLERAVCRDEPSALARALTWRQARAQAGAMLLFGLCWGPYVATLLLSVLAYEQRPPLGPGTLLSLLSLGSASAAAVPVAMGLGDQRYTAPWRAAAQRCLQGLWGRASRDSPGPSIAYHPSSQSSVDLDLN

[7] = GPCR α2C (adrenoceptor alpha 2C), read-out: % GPCR activation compared to TPA
[8] = CCKBR (cholecystokinin B receptor), read-out: % GPCR activation compared to TPA
[9] = H1 (histamine receptor H1), read-out: % GPCR activation compared to TPA
[10] = GLP1R (glucagon-like peptide 1 receptor), read-out: % GPCR activation compared to TPA
[11] = GPCR GPR113 (G-protein-coupled receptor 113 (ADGRF3)), read-out: % GPCR activation compared to TPA
[12] = GPBA (G protein-coupled bile acid receptor 1), read-out: % GPCR activation compared to TPA
[13] = read-out: % GPCR activation compared to TPA, GPCR α2C (adrenoceptor alpha 2C)
[14] = read-out: % GPCR activation compared to TPA, CCKBR (cholecystokinin B receptor)
[15] = read-out: % GPCR activation compared to TPA, H1 (histamine receptor H1)
[16] = read-out: % GPCR activation compared to TPA, GLP1R (glucagon-like peptide 1 receptor)
[17] = read-out: % GPCR activation compared to TPA, GPCR GPR113 (G-protein-coupled receptor 113 (ADGRF3))
[18] = read-out: % GPCR activation compared to TPA, GPBA (G protein-coupled bile acid receptor 1)

T3 sequence (P35367 whole entry): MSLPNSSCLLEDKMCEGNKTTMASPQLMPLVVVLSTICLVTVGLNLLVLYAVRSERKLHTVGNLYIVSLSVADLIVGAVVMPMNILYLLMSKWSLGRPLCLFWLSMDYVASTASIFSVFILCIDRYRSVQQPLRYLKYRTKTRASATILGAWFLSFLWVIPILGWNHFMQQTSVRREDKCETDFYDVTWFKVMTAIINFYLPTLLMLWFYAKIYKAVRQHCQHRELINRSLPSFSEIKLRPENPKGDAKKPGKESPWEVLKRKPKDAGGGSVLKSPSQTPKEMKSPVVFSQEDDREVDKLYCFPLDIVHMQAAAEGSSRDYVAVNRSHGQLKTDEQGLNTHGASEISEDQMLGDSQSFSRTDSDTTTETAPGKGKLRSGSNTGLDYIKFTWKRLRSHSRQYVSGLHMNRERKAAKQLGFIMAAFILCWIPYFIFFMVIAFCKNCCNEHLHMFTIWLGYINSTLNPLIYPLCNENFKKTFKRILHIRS
Chain of 348 GPCRs (Homo sapiens, UniProt P43220) (P43220 24-463): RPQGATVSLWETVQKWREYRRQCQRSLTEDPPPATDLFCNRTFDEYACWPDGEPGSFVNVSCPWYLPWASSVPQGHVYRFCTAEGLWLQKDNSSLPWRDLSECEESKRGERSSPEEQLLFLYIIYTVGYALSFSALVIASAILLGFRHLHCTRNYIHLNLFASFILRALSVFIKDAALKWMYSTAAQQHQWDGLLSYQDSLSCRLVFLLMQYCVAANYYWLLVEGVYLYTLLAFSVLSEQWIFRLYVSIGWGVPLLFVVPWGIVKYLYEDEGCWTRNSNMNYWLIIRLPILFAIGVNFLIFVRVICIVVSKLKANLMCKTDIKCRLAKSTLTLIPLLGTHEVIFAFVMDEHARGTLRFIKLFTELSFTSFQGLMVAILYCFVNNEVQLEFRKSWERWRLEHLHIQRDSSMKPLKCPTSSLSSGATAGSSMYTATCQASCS

| SMILES | activation at 10 µM (348 GPCRs [1]; [7]) [%] | activation at 100 µM (348 GPCRs [2]; [8]) [%] | activation at 10 µM (348 GPCRs [3]; [9]) [%] | activation at 10 µM (348 GPCRs [4]; [10]) [%] | activation at 10 µM (348 GPCRs [5]; [11]) [%] | activation at 10 µM (348 GPCRs [6]; [12]) [%] | activation at 10 µM (348 GPCRs [1]; [13]) [%] | activation at 100 µM (348 GPCRs [2]; [14]) [%] | activation at 10 µM (348 GPCRs [3]; [15]) [%] | activation at 10 µM (348 GPCRs [4]; [16]) [%] | activation at 10 µM (348 GPCRs [5]; [17]) [%] | activation at 10 µM (348 GPCRs [6]; [18]) [%] | activation at 100 µM (348 GPCRs [1]; GPCR α2C (adrenoceptor alpha 2C), 100μM, read-out: % GPCR activation compared to TPA) [%] | activation at 100 µM (348 GPCRs [5]; GPCR GPR113 (G-protein-coupled receptor 113 (ADGRF3)), 100μM, read-out: % GPCR activation compared to TPA) [%] |
| --- | --- | --- | --- | --- | --- | --- | --- | --- | --- | --- | --- | --- | --- | --- |
| N#C[C@@]1(c2ccc3c(N)ncnn23)O[C@H](CO)[C@@H](O)[C@H]1O [GS441524] | 2.32 | 6.14 | -5.47 | -1.52 | -1.08 | -1.79 | – | – | – | – | – | – | – | – |
| CC(C)OC(=O)[C@H](C)N[P@](=O)(OC[C@H]1O[C@@H](n2ccc(=O)[nH]c2=O)[C@](C)(F)[C@@H]1O)Oc1ccccc1 [sofosbuvir] | – | – | – | – | – | – | -4.42 | -2.44 | -0.312 | -2.54 | 0.111 | -0.805 | – | – |
| CCC(CC)COC(=O)[C@H](C)N[P@](=O)(OC[C@H]1O[C@@](C#N)(c2ccc3c(N)ncnn23)[C@H](O)[C@@H]1O)Oc1ccccc1 [remdesivir] | – | – | – | – | – | – | 15.6 | 7.72 | -3.69 | -0.928 | 0.66 | -1.26 | – | – |
| CC(C)C(=O)OC[C@H]1O[C@@H](n2ccc(NO)nc2=O)[C@H](O)[C@@H]1O [molnupiravir] | -6.27 | -2.83 | -2.24 | -2.83 | -1.49 | -1.97 | – | – | – | – | – | – | – | – |
| NC(=O)c1nc(F)cnc1O [favipiravir, 6-fluoro-3-hydroxy-2-pyrazinecarboxamide] | – | 4.12 | 0.654 | -2.54 | – | 0.241 | – | – | – | – | – | – | 7 | -1.12 |
